According to PubChem BioAssay AID624322 (Sanford-Burnham Center for Chemical Genomics, 2012):
Calls of active or inactive are those of the source. The rule behind the calls is not given here.

Each molecule was assayed against Sentrin-specific protease 8 (Homo sapiens) (UniProt Q96LD8) (assay: SENP8 deneddylase blockers, concentration series – biochemical, Nedd8 protein substrate, dose response (AID 624322)). Conditions: recombinant SENP8, Nedd8 substrate cleavage inhibition.
Sequence of Sentrin-specific protease 8 (Homo sapiens) (Q96LD8 whole entry, looked up): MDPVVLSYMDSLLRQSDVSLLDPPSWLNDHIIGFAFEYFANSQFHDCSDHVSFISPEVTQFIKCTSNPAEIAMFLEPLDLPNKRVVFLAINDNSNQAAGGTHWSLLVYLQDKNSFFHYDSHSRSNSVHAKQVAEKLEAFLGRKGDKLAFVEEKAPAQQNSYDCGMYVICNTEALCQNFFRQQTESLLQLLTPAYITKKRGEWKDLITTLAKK
In the case of Cn1c(Cc2ccccc2)nnc1SCC(=O)c1cccs1, the IC50 is reported as > 100 µM (inactive).
With O=C(O)c1ccc(Cl)c(S(=O)(=O)NCc2ccco2)c1 the IC50 was > 100 µM (inactive).
NC(=O)c1ccc(N=Cc2ccc([N+](=O)[O-])s2)cc1 showed an IC50 of 2.48 µM.
With O=C(NC1C(=O)NNC1c1ccccc1)c1ccccc1 (stereo unspecified) the IC50 was > 100 µM (inactive).
For O=C(Nc1c(-c2ccccc2)[nH][nH]c1=O)c1cnccn1, the IC50 was 42.6 µM.
With Cc1ccc(S(=O)(=O)N[C@H](C(=O)N2CCC(C(=O)N[C@H](C(=O)O)c3ccccc3)CC2)C(C)C)cc1 the IC50 was > 100 µM (inactive).
In the case of O=C(CCc1ccccc1)c1c(O)cc(O)cc1O, the IC50 is reported as > 100 µM (inactive).
For O=c1[nH]c2ccccc2s1, the IC50 was > 100 µM (inactive).
For O=[N+]([O-])c1cc(F)c2cccnc2c1O, the IC50 was 11.8 µM.
With O=C(O)CCCCCCCCCCCc1ccccc1 the IC50 was > 100 µM (inactive).
CC1=C(SCCC#N)S/C(=C2\SC(C)=C(SCCC#N)S2)S1 showed an IC50 of 0.297 µM.
In the case of CCCn1nc([N+](=O)[O-])c(C(C#N)c2nc3ccccc3o2)c(Cl)c1=O (stereo unspecified), the IC50 is reported as > 100 µM (inactive).
COc1ccc(-n2[nH]c(C)cc2=O)cc1 was tested, and the IC50 was > 100 µM (inactive).
In the case of O=C(N/N=C/c1ccc([N+](=O)[O-])o1)c1ccccc1-n1cccc1, the IC50 is reported as > 100 µM (inactive).
For COc1ccc(O)c(C(c2c(C)[nH][nH]c2=O)c2c(C)[nH][nH]c2=O)c1, the IC50 was 7.17 µM.
For O=[N+]([O-])c1ccc(N2CCN(Cc3ccccc3)CC2)c2c1no[n+]2[O-], the IC50 was 17.4 µM.
